Test results reported in EP1401467B3, “ALPHA-FETOPROTEIN PEPTIDES AND USES THEREOF” (Albany Medical College, priority 2001, dated 2003).
“Also recorded” adds a separate entry of the source. Square brackets hold non-standard residues; d marks the D form. Peptide text beside a SMILES is read from it. Hyp = O=C(O)[C@@H]1C[C@@H](O)CN1

What was measured:
[1] = Shelf-life / storage studies of lyophilized peptide, read out in the immature mouse uterine growth assay; format: physicochemical; settings: for shelf-life: storage in the lyophilized state at -20°C, activity tested in immature mouse uterine growth assay
Protocol: Peptide or vehicle control was injected i.p. into immature female Swiss mice. One hour later 0.5 µg of E2 or vehicle control was injected i.p. into these mice. Twenty-two hours later, uteri were dissected and weighed. Percent inhibition of E2-stimulated growth of uterus by peptide was calculated as described in Materials and Methods. There were five to eight replicate mice per treatment group. (Figure 1a) Peptide dose-response. […] Peptide, SEQ ID NO:2: […], was fractionated using a Waters SW 200 gel-filtration column using phosphate buffered saline pH 7.4 as mobil phase. Fractions which had significant UV absorbance at 230 nm were collected at twenty second intervals. The first fraction (Frac I), the last fraction (Frac III), and the starting material (UnFrac) were all tested in the immature mouse uterine growth assay as described in Figures 1a and 1b. […] (Figure 3a) dose-response. […] (Figure 4a) dose-response. […] There were five to eight replicate mice per treatment group. Estrogen was provided via a slow release pellet implanted subcutaneously. Peptide was given twice a day i.p. at a dose of 1 µg per mouse. Tumor volumes in each mouse were measured at the time of tumor implantation and at 10-day intervals thereafter during survival laparotomies. […] (Figure 6a) dose-response. […] Experimental protocol is described in legend to Figure 5 and Materials and Methods. […] Rabbit uterine cytosol was used as a source of estrogen receptor. All incubations were performed in triplicate, each containing 100 µl of cytosol, 20 µl of 10 nM 6,7-^3Hestradiol (50 Ci/mmol), and 80 µl of test agent at the final concentrations indicated on the abscissa. Details of the assay are described in Materials and Methods. • Concentration of [^3H] E2-complex with receptor in the presence of different concentrations of test agent is expressed as a percentage of the amount of complex formed in the absence of test agent; • Figures 9a and 9b illustrate the effect of AFP-derived peptide on growth of estrogen-receptor-positive MCF-7 and MCF-7/Tam.human breast cancer xenografts. Tumors were implanted as described in Materials and Methods. […] Tumor volumes in each mouse were measured at the time of tumor implantation, again at day 15 after tumor implantation during survival laparotomy and again at day 30 after tumor implantation during necropsy. There was a minimum of 5 mice per group. (Figure 9a) MCF-7 tumors. […] See legend to Figures 9a and 9b for experimental protocol. […] See legend to Figures 9a and 9b for experimental protocol. […] Rabbit uterine cytosol was used as a source of estrogen receptor. All incubations were performed in triplicate, each containing 100 µl of cytosol, 20 µl of 10 nM 6,7-^3H estradiol (50 Ci/mmol), and 80 µl of test agent at the final concentrations indicated on the abscissa. […]

[2] = tested on: MCF-7 human breast cancer xenografts; assay: Human breast cancer xenograft assay, MCF-7; format: in vivo; settings: E2 implant, 30-day observation
Protocol: Peptide or vehicle control was injected i.p. into immature female Swiss mice. One hour later 0.5 µg of E2 or vehicle control was injected i.p. into these mice. Twenty-two hours later, uteri were dissected and weighed. Percent inhibition of E2-stimulated growth of uterus by peptide was calculated as described in Materials and Methods. There were five to eight replicate mice per treatment group. (Figure 1a) Peptide dose-response. […] Peptide, SEQ ID NO:2: […], was fractionated using a Waters SW 200 gel-filtration column using phosphate buffered saline pH 7.4 as mobil phase. Fractions which had significant UV absorbance at 230 nm were collected at twenty second intervals. The first fraction (Frac I), the last fraction (Frac III), and the starting material (UnFrac) were all tested in the immature mouse uterine growth assay as described in Figures 1a and 1b. […] (Figure 3a) dose-response. […] (Figure 4a) dose-response. […] There were five to eight replicate mice per treatment group. Estrogen was provided via a slow release pellet implanted subcutaneously. Peptide was given twice a day i.p. at a dose of 1 µg per mouse. Tumor volumes in each mouse were measured at the time of tumor implantation and at 10-day intervals thereafter during survival laparotomies. […] (Figure 6a) dose-response. […] Experimental protocol is described in legend to Figure 5 and Materials and Methods. […] Rabbit uterine cytosol was used as a source of estrogen receptor. […] E2-complex with receptor in the presence of different concentrations of test agent is expressed as a percentage of the amount of complex formed in the absence of test agent; • Figures 9a and 9b illustrate the effect of AFP-derived peptide on growth of estrogen-receptor-positive MCF-7 and MCF-7/Tam.human breast cancer xenografts. […] Tumor volumes in each mouse were measured at the time of tumor implantation, again at day 15 after tumor implantation during survival laparotomy and again at day 30 after tumor implantation during necropsy. […]

[3] = tested on: E2-stimulated growth of immature mouse uterus; settings: for dose of maximal inhibitory activity on estrogen-stimulated growth of immature mouse uterus: i.p., dose-response
Protocol: (§1) Peptide or vehicle control was injected i.p. into immature female Swiss mice. One hour later 0.5 µg of E2 or vehicle control was injected i.p. into these mice. Twenty-two hours later, uteri were dissected and weighed. Percent inhibition of E2-stimulated growth of uterus by peptide was calculated as described in Materials and Methods. There were five to eight replicate mice per treatment group. (Figure 1a) Peptide dose-response. […] Peptide, SEQ ID NO:2: […], was fractionated using a Waters SW 200 gel-filtration column using phosphate buffered saline pH 7.4 as mobil phase. Fractions which had significant UV absorbance at 230 nm were collected at twenty second intervals. The first fraction (Frac I), the last fraction (Frac III), and the starting material (UnFrac) were all tested in the immature mouse uterine growth assay as described in Figures 1a and 1b. […] (Figure 3a) dose-response. […] (Figure 4a) dose-response. […] There were five to eight replicate mice per treatment group. Estrogen was provided via a slow release pellet implanted subcutaneously. Peptide was given twice a day i.p. at a dose of 1 µg per mouse. Tumor volumes in each mouse were measured at the time of tumor implantation and at 10-day intervals thereafter during survival laparotomies. […] (Figure 6a) dose-response. […] Experimental protocol is described in legend to Figure 5 and Materials and Methods. […] Rabbit uterine cytosol was used as a source of estrogen receptor. All incubations were performed in triplicate, each containing 100 µl of cytosol, 20 µl of 10 nM 6,7-^3Hestradiol (50 Ci/mmol), and 80 µl of test agent at the final concentrations indicated on the abscissa. Details of the assay are described in Materials and Methods. • Concentration of [^3H] E2-complex with receptor in the presence of different concentrations of test agent is expressed as a percentage of the amount of complex formed in the absence of test agent; • Figures 9a and 9b illustrate the effect of AFP-derived peptide on growth of estrogen-receptor-positive MCF-7 and MCF-7/Tam.human breast cancer xenografts. Tumors were implanted as described in Materials and Methods. […] Tumor volumes in each mouse were measured at the time of tumor implantation, again at day 15 after tumor implantation during survival laparotomy and again at day 30 after tumor implantation during necropsy. There was a minimum of 5 mice per group. (Figure 9a) MCF-7 tumors. […] See legend to Figures 9a and 9b for experimental protocol. […] See legend to Figures 9a and 9b for experimental protocol. […] Rabbit uterine cytosol was used as a source of estrogen receptor. All incubations were performed in triplicate, each containing 100 µl of cytosol, 20 µl of 10 nM 6,7-^3H estradiol (50 Ci/mmol), and 80 µl of test agent at the final concentrations indicated on the abscissa. Concentration of [^3H] […] The assay procedure is described in the Materials and Methods.

[4] = tested on: T47D human breast cancer xenografts; assay: Human breast cancer xenograft assay, T47D; format: in vivo; settings: tamoxifen
[5] = tested on: MDA-MB-231 human breast cancer xenografts; assay: Human breast cancer xenograft assay, MDA-MB-231; format: in vivo; settings: tamoxifen 50 µg per mouse i.p. once a day
[6] = tested on: MCF-7 human breast cancer xenografts; settings: earlier study (Bennett et al. 1998); cited from earlier work
[7] = tested on: MCF-7/Tam human breast cancer xenografts; assay: Human breast cancer xenograft assay, tamoxifen-resistant MCF-7 subline; format: in vivo; settings: tamoxifen 50 µg per mouse i.p. once a day; E2 implant; day 30
Protocol: Peptide or vehicle control was injected i.p. into immature female Swiss mice. One hour later 0.5 µg of E2 or vehicle control was injected i.p. into these mice. Twenty-two hours later, uteri were dissected and weighed. Percent inhibition of E2-stimulated growth of uterus by peptide was calculated as described in Materials and Methods. There were five to eight replicate mice per treatment group. (Figure 1a) Peptide dose-response. […] Peptide, SEQ ID NO:2: […], was fractionated using a Waters SW 200 gel-filtration column using phosphate buffered saline pH 7.4 as mobil phase. Fractions which had significant UV absorbance at 230 nm were collected at twenty second intervals. […] Tumor volumes in each mouse were measured at the time of tumor implantation and at 10-day intervals thereafter during survival laparotomies. […] E2-complex with receptor in the presence of different concentrations of test agent is expressed as a percentage of the amount of complex formed in the absence of test agent; • Figures 9a and 9b illustrate the effect of AFP-derived peptide on growth of estrogen-receptor-positive MCF-7 and MCF-7/Tam.human breast cancer xenografts. […] Tumor volumes in each mouse were measured at the time of tumor implantation, again at day 15 after tumor implantation during survival laparotomy and again at day 30 after tumor implantation during necropsy. […]

[8] = mouse, in vivo
estrogen receptor = biological target: T1, estrogen receptor (Oryctolagus cuniculus, UniProt G1SML6); settings: at a concentration of 100 nM; rabbit uterine cytosol
T1 sequence (G1SML6 1-598): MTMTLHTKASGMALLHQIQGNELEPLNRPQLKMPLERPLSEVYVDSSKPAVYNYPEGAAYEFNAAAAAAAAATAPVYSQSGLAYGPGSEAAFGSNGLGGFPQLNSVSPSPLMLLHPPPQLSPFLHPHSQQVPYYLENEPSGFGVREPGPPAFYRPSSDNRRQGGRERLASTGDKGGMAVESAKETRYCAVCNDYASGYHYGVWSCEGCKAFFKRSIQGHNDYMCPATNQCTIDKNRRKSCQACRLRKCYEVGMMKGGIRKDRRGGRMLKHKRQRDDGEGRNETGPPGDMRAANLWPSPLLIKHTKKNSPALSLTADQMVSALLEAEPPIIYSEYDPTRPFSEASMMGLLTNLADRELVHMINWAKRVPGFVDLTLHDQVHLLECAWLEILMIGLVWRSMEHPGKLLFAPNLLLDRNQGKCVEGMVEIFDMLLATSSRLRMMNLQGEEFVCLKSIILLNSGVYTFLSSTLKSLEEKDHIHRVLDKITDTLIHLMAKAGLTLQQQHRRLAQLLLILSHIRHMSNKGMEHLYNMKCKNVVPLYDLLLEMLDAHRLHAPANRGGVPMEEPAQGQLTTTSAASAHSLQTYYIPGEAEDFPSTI
Protocol: as §1

CSCC[C@@H]1NC(=O)[C@H](CCC(=O)O)NC(=O)[C@H](CCC(N)=O)NC(=O)CNC(=O)[C@@H]2C[C@@H](O)CN2C(=O)[C@H](CC(N)=O)NC(=O)[C@H](C(C)C)NC(=O)[C@@H]2C[C@@H](O)CN2C(=O)[C@H]([C@@H](C)O)NC1=O [Cyclo-(SEQ ID NO:5: EMTOVNOGQ), Cyclo-(EMTOVNOGQ)] (cyclo(EMT[Hyp]VN[Hyp]GQ))
shelf-life [1]: Indefinite shelflife; also recorded: indefinite shelf-life
estrogen-dependent growth of MCF-7 human breast cancer xenografts (tumor volume vs E2 alone) ([2]; peptide 1 µg per mouse i.p. twice a day, SCID mice): significantly inhibited
anti-estrotrophic activity ([3]; at doses higher than 10 µg/mouse): retained significant anti-estrotrophic activity
dose of maximal inhibitory activity on estrogen-stimulated growth of immature mouse uterus [3]: 10 µg per mouse

CC/C(=C(\c1ccccc1)c1ccc(OCCN(C)C)cc1)c1ccccc1 [tamoxifen]
growth of ER+ T47D human breast cancer xenografts [4]: prevented growth
estrogen-dependent growth of MCF-7 human breast cancer xenografts (tumor volume vs E2 alone) ([2]; tamoxifen 50 µg per mouse i.p. once a day): prevented growth; also recorded: no increase in tumor volume
estrogen-dependent growth of MCF-7 human breast cancer xenografts (tumor volume vs E2 alone) ([2]; tamoxifen 50 µg per mouse i.p. once a day, listed as Tamoxifen): significantly different
growth of ER- MDA-MB-231 human breast cancer xenografts [5]: Neither peptide nor tamoxifen were effective; also recorded: did not affect the growth
MCF-7 breast cancer xenograft growth [6]: stop MCF-7 breast cancer xenograft growth
growth of tamoxifen-resistant MCF-7 subline xenografts (tumor volume vs E2 alone) [7]: resistant to tamoxifen in vivo; also recorded: only minimally effective

CSCC[C@H](NC(=O)[C@@H](N)CCC(=O)O)C(=O)N[C@H](C(=O)N1C[C@H](O)C[C@H]1C(=O)N[C@H](C(=O)N[C@@H](CC(N)=O)C(=O)N1C[C@H](O)C[C@H]1C(=O)NCC(N)=O)C(C)C)[C@@H](C)O [SEQ ID NO:4: EMTOVNOG, EMTOVNOG] (H-EMT[Hyp]VN[Hyp]G-NH2)
biological half-life [8]: two to three

CSCC[C@@H]1NC(=O)[C@H](CCC(=O)O)NC(=O)[C@H](CCC(N)=O)NC(=O)CNC(=O)[C@@H]2CCCN2C(=O)[C@H](CC(N)=O)NC(=O)[C@H](C(C)C)NC(=O)[C@@H]2CCCN2C(=O)[C@H]([C@@H](C)O)NC1=O (cyclo(EMTPVNPGQ))
biological activity after prolonged storage ([1]; after storage of six months): significant, albeit not optimal, biological activity
shelf-life [1]: somewhat extended but still rather limited shelf-life
biological activity after treatment with 4 M urea ([1]; stored/aged peptide, brief treatment with 4 M urea): restored the optimal biological activity
inhibition of estrogen-stimulated growth of immature mouse uterus ([3]; at the optimal dose of the linear peptides (1 µg)): very active
dose of maximal inhibitory activity on estrogen-stimulated growth of immature mouse uterus [3]: 10 µg per mouse

O=C(c1ccc(OCCN2CCCCC2)cc1)c1c(-c2ccc(O)cc2)sc2cc(O)ccc12 [raloxifene]
inhibition of estradiol binding to its receptor (estrogen receptor): completely inhibited
